# Results from patent US8158606B2, “β-L-2′-deoxynucleosides for the treatment of resistant HBV strains and combination therapies” (priority 2002, dated 2012).
# Values joined by “and” are separate entries in the source; they are usually repeats but may differ in a detail not shown here. Identical values can stand only once. Counter-ions that a name gives are not always drawn. Like-named read-outs stand apart in the source and are kept apart here.
# Key:
# [1] = Stability study in buffer at pH 7.4, 7.20, 4.5 and 1.2; assay type: physicochemical; conditions: pH 1.2, no decomposition products detected for up to 23 hours
# [2] = assay type: physicochemical; conditions: octanol-1 (B) / MilliQ water pH 6.5 (A′), Study 1 and Study 2, listed as L-dC-5′-valinyl ester hydrochloride
# Description: (§1) To 1 mL of this solution, 1 mL of octanol-1 (B) saturated with MilliQ water (A′) was added.
# as §1
# [3] = Log P study, octanol-1 / phosphate buffer; conditions: for P (B/A): octanol-1 (B) / 0.02 M phosphate buffer pH 7.2 (A), Study 1 and Study 2; for log P (octanol/water): octanol-1 / 0.02 M phosphate buffer pH 7.2
# Description: To 1 mL of this solution, 1 mL of octanol-1 (B) saturated with 0.02 M phosphate buffer solution (A) was added. The resultant mixture was shaken and centrifuged; three samples from each phase was collected and analyzed by HPLC, as shown in Table 10.
# The solution was then saturated with octanol-1 (B). To 1 mL of this solution, 1 mL of octanol-1 (B) saturated with 0.02 M phosphate buffer solution (A) was added. The resultant mixture was shaken and centrifuged; three samples from each phase was collected and analyzed by HPLC, as shown in Table 11.
# [4] = Solubility study in water (HPLC calibration)
# [5] = target: hepatitis B virus deoxyribonucleic acid (DNA) polymerase (Hepatitis B virus genotype D subtype ayw, UniProt P03156); assay: biochemical
# hepatitis B virus deoxyribonucleic acid (DNA) polymerase, sequence (P03156 whole entry): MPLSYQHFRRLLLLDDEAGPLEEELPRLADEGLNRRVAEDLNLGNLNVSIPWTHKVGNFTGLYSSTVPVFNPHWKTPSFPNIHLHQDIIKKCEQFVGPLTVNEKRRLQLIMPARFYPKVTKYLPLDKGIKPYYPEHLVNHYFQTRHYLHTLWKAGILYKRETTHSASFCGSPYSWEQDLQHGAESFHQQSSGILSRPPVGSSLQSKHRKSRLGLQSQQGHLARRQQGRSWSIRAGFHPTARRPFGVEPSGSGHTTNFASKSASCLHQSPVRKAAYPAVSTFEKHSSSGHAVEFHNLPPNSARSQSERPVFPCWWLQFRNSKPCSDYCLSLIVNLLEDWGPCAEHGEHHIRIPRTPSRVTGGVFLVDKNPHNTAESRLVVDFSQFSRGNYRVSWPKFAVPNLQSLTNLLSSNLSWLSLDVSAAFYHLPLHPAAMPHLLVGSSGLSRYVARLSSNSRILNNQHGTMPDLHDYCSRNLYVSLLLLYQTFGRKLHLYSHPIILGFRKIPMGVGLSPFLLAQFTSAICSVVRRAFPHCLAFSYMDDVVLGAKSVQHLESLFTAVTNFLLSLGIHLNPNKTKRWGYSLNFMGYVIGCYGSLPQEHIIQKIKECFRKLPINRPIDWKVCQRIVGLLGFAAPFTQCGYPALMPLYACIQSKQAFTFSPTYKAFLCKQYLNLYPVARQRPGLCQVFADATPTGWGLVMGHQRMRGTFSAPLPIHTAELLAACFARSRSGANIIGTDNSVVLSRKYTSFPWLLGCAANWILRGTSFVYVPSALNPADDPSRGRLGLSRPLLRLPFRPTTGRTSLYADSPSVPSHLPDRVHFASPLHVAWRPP
# [6] = system: M552I mutant HBV, cell line I2; assay: Antiviral testing in stable HepG2 cell lines, EPA of intracellular nucleocapsids; assay type: cell-based, hepatitis B virus
# Description: (§2) Recombinant DNA constructs corresponding to these lamivudine-resistant mutants were created by site directed mutagenesis. The test system comprised stable cell lines harboring each of the transfected mutant genomes, as well as a wild-type control HBV genome. The antiviral activity of LdT (telbivudine) and LdC, together with the control drugs lamivudine and PMEA, was determined against the mutant and wild-type HBV genomes in the respective test cell lines.
# (§3) Endogenous Polymerase Assay (EPA) of cell lysate: Cells were grown in 12-well collagen plates to 100% confluency for 3-4 days and cytosolic lysates were prepared in 1 ml of 50 mM Tris-HCl pH 7.4, 150 mM NaCl, 5 mM MgCl2, 0.2% NP-40. EPAs were essentially performed as described (Seifer et al., 1998). […] The immobilized capsids were then washed, endogenous polymerase reactions were initiated in 50 ul reaction volume containing 50 mM Tris-HCl pH7.4, 75 mM NH4Cl, 1 mM EDTA, 20 mM MgCl2, 0.1 mM β-ME, 0.5% NP-40, 100 μM cold dGTP, TTP, dCTP, and 50 nM ^33P-dATP (Perkin Elmer Life Sciences Cat# NEG 612H), and incubated overnight at 37° C. Following digestion with 1 mg/ml of Proteinase K (Roche, Cat#1373196) for 1 h at 37° C., ^33P-labeled HBV DNA was liberated via phenol/chloroform extraction The nucleic acids were finally precipitated with equal volumes 5M NH4-acetate and 2.5 volumes 100% EtOH and separated on a 1% native agarose gel in Tris-borate buffer. Gels were either fixed with 7% TCA, then dried, or blotted onto positively charged nylon membrane (Pall Biodyne Plus Cat#60406) overnight at room temperature via capillary transfer in 0.4 N NaOH. Dried gels/membranes were exposed to a phosphoimager screen (Molecular Dynamics) overnight at room temperature, then scanned (Storm 860, Molecular Dynamics) and quantitated with ImageQuant (Molecular Dynamics) software.
# (§4) 12-well Biocoat collagen I plates (Becton Dickinson Cat#35-4500) are seeded with cells at a density of 0.5-1×10^6 cells per well in 2 ml DMEM containing 5% FBS, 2 mM L-glutamine, 100 I.U. penicillin/100 μg/mL streptomycin, and 0.5 mg/mL G-418.
# (§5) Drug dilutions are prepared freshly in 100% DMSO as 200× stocks. For each experiment, 4 aliquots of each drug dilution series are stored at −20° C. until used. Once cells reach confluency, drug treatment is initiated by adding 10 μL of drug dilution into 2 ml of fresh DMEM+5% FBS. […] The no-drug control well receives only 10 μl of DMSO. Cells are treated every other day with 2 mL of fresh drug/medium for a total of 8 days. Cell lysates are then collected on day 10 as described below:
# (§6) Aspirate media and rinse cell monolayer carefully once with 1 mL of PBS.
# (§7) Add 1 ml of lysis buffer (50 mM Tris-HCl pH 7.5/150 mM NaCl/5 mM MgCl2/0.2% NP-40). Store on ice for 30 min to 4 h.
# (§8) Harvest lysed cells. Transfer to 1.5 ml microfuge tubes.
# (§9) Clarify lysate by spinning for 5 min at RT and 14,000 rpm.
# (§10) Transfer clarified lysate to fresh tubes. Snap-freeze on dry-ice and store at −80° C. until ready to continue with endogenous polymerase assays essentially as described above.
# (§11) EC50's were generated from the phosphorimager data by curve fitting using Xlfit software.
# [7] = system: L515M/M552I mutant HBV, cell line MI4; assay: as above; assay type: cell-based, hepatitis B virus
# Description: as §2, §3, §4, §5, §6, §7, §8, §9, §10, §11
# [8] = system: wild-type HBV (ayw), cell line WT3/C1; assay: as above; assay type: cell-based, hepatitis B virus; conditions: WT (ayw); for EC50: cell line WT3/C1, mean ± SD of three to four experiments
# Description: as §2, §3, §4, §5, §6, §7, §8, §9, §10, §11
# [9] = system: M552V mutant HBV, cell line V1/C9; assay: as above; assay type: cell-based, hepatitis B virus; conditions: for EC50: cell line V1/C9, mean ± SD of three to four experiments
# Description: as §2, §3, §4, §5, §6, §7, §8, §9, §10, §11
# [10] = system: L515M/M552V mutant HBV, cell line MV5/B3; assay: as above; assay type: cell-based, hepatitis B virus
# Description: as §2, §3, §4, §5, §6, §7, §8, §9, §10, §11
# [11] = system: cytosolic extracts of HepG2 cells; assay: Steady state phosphorylation kinetics in cytosolic extracts; assay type: biochemical, human; conditions: cytosolic extracts of HepG2 cells as enzyme source
# [12] = system: hepatitis B virus; conditions: clinical studies; cited from earlier work
# [13] = listed as 3′-valinyl ester hydrochloride of β-L-dC
# [14] = Hepatitis B virus, HepG2, M552I, cell line I2, mean ± SD of three to four experiments, read-out: EC50
# [15] = Hepatitis B virus, HepG2, L515M/M552I, cell line MI4, mean ± SD of three to four experiments, read-out: EC50
# [16] = Hepatitis B virus, HepG2, M552V
# [17] = Hepatitis B virus, HepG2, L515M/M552V, cell line MV5/B3, mean ± SD of three to four experiments, read-out: EC50
molecule,measurement,setting,value
"CC(C)[C@H](N)C(=O)OC[C@@H]1O[C@H](n2ccc(N)nc2=O)C[C@H]1O [5′-val-L-dC, 5′-L-valine ester of 2′-deoxy-β-L-cytidine hydrochloride]",stability in words,[1],fully stable
same,P′ (B/A′),[2],1.54 × 10^−3 and 2.04 × 10^−3
"CC(C)[C@H](N)C(=O)O[C@@H]1C[C@@H](n2ccc(N)nc2=O)O[C@H]1CO.Cl [3′-val-L-dC, 3′-valinyl ester hydrochloride of β-L-dC]",P (B/A),[3]; listed as L-dC-3′-valine ester hydrochloride,0.0296 and 0.0293
same,log P (octanol/water),[3],−1.53
same,Solubility (g/L),[4],>408 g/L
same,Solubility (g/L),[4]; [13],> 408 g/L
same,Solubility (mol/L),[4]; [13],greater than 1.023 mol/L
"O=c1ccn([C@@H]2C[C@@H](O)[C@H](COP(=O)(O)OP(=O)(O)OP(=O)(O)O)O2)c(=O)[nH]1 [L-dU-TP, β-L-2′-deoxyuridine 5′-triphosphate]",IC50,[5],5.26 µM
Nc1ccn([C@@H]2C[C@@H](O)[C@H](CO)O2)c(=O)n1 [LdC-HCl],EC50,"[6]; M552I, cell line I2, mean ± SD of three to four experiments, read-out: EC50",≥ 1000 µM
same,EC50,"[7]; L515M/M552I, cell line MI4, mean ± SD of three to four experiments, read-out: EC50",≥ 1000 µM
same,EC50,[8],0.18 ± 0.09 µM
same,EC50,[9]; M552V,0.36 ± 0.13 µM
same,EC50,"[10]; L515M/M552V, cell line MV5/B3, mean ± SD of three to four experiments, read-out: EC50",777 ± 99 µM
"Nc1ccn([C@H]2C[C@H](O)[C@@H](CO)O2)c(=O)n1 [D-dC, D-Deoxycytidine]",P (B/A),[3],0.039
same,log P (octanol/water),[3],−1.41
same,maximum initial velocity (Vmax) of phosphorylation,[11],2.15 nmol/min/mg protein
same,Solubility (g/L),[4],272 g/L
same,Solubility (mol/L),[4],1.03 mol/L
same,Concentration (mol/L) of single samples,[4]; 1st-3rd HPLC sample of the saturated (D-dC) or most concentrated available solution,1.07 mol/L and 1.08 mol/L and 0.96 mol/L
"Cc1cn([C@H]2C[C@H](O)[C@@H](CO)O2)c(=O)[nH]c1=O [Thd, D-thymidine]",maximum initial velocity (Vmax) of phosphorylation,[11],1.26 nmol/min/mg protein
"Nc1ncnc2c1ncn2CCOCP(=O)(O)O [PMEA, 9-{2-(phosphonomethoxy)ethyl}adenine, reference compound]",EC50,[6]; [14],1.6 ± 1.12 µM
same,"activity against the mutant, in words",[6]; M552I single mutant,retained significant activity
same,X Resist. (fold resistance),"[6]; M552I, EC50 mutant divided by EC50 wild-type",4.6 ± 3.0
same,EC50,[7]; [15],1.49 ± 0.3 µM
same,"activity against the mutant, in words",[7]; L515M/M552I double mutant,retained significant activity
same,X Resist. (fold resistance),"[7]; L515M/M552I, EC50 mutant divided by EC50 wild-type",3.6 ± 1.1
same,EC50,"[8]; Hepatitis B virus, HepG2",0.33 ± 0.17 µM
same,X Resist. (fold resistance),[8]; EC50 mutant divided by EC50 wild-type,1
same,EC50,[9]; [16],1.02 ± 0.22 µM
same,"activity against the mutant, in words",[9]; M552V single mutant,retained significant activity
same,X Resist. (fold resistance),"[9]; M552V, EC50 mutant divided by EC50 wild-type",3.8 ± 2.3
same,EC50,[10]; [17],0.62 ± 0.3 µM
same,"activity against the mutant, in words",[10]; L515M/M552V double mutant,retained significant activity
same,X Resist. (fold resistance),"[10]; L515M/M552V, EC50 mutant divided by EC50 wild-type",3.3 ± 2.9
"CC(=O)OC[C@@H]1O[C@H](n2ccc(N)nc2=O)C[C@H]1OC(C)=O [3′5′-diacetyl-L-dC, 3′,5′-Di-O-acetyl-2′-deoxy-β-L-cytidine]",log P (octanol/water),[3],−0.74
Interferon alpha-2b,patients with no evidence of the hepatitis B virus in their blood over time,[12],45%
"Nc1ccn([C@@H]2CS[C@H](CO)O2)c(=O)n1 [lamivudine, (−)-enantiomer of BCH-189 (2′,3′-dideoxy-3′-thiacytidine), reference compound]",EC50,"[6]; Hepatitis B virus, HepG2, M552I single mutant",> 1000 µM
same,EC50,[6]; [14],≥ 1000 µM
same,EC50,"[7]; Hepatitis B virus, HepG2, L515M/M552I double mutant",> 1000 µM
same,EC50,[7]; [15],≥ 1000 µM
same,EC50,"[8]; Hepatitis B virus, HepG2",0.05 ± 0.03 µM
same,EC50,[9]; [16],0.96 ± 0.36 µM
same,EC50,"[10]; Hepatitis B virus, HepG2, L515M/M552V double mutant",> 1000 µM
same,EC50,[10]; [17],≥ 1000 µM
